Data: patent publication US11142515B2, “Pyrazolyl-ureas as kinase inhibitors” (RESPIVERT LIMITED, priority 2014, dated 2021)

Key:
[1] = biological target: T1, p38 MAPKα isoform (MAPK14) (Homo sapiens, UniProt Q16539); experiment: p38 MAPKα enzyme inhibition (Z-LYTE FRET); format: biochemical; settings: Table 2A; read-out: IC50 Values for Enzyme Inhibition p38 MAPKα
T1 construct: purchased Life Technologies
How it was run: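 Activity was measured indirectly as phosphorylation of a MAPKAP-K2-derived FRET peptide. Enzyme (added at 40 ng/mL) was preincubated 2 h at RT with compound (added solutions 40–0.0012 μg/mL).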

[2] = biological target: T2, Hck (Homo sapiens, UniProt P08631); experiment: Hck enzyme inhibition (Z-LYTE FRET); format: biochemical; settings: Table 2A
T2 construct: purchased Life Technologies
Experimental: (§1) The enzyme inhibitory activities of compounds disclosed herein were determined by FRET using synthetic peptides labelled with both donor and acceptor fluorophores (Z-LYTE, Life Technologies, Paisley, UK).
(§2) The relevant enzyme (1000 ng/mL, 1400 ng/mL or 2000 ng/mL respectively, 2.5 μL) was incubated with the test compound (either 40 μg/mL, 12 μg/mL, 4 μg/mL, 1.2 μg/mL, 0.4 μg/mL, 0.12 μg/mL, 0.04 μg/mL, 0.012 μg/mL, 0.004 μg/mL or 0.0012 μg/mL, 2.5 μL each) for 2 h at RT. The FRET peptides (8 μM, 2.5 μL), and appropriate ATP solutions (2.5 μL, 800 μM for c-Src, and 60 μM ATP for HCK and Syk) were then added to the enzyme/compound mixtures and incubated for 1 h at RT. Development reagent (protease, 5 μL) was added for 1 h prior to detection in a fluorescence microplate reader (EnVision, Perkin Elmer).
(§3) In all cases, the site-specific protease cleaves non-phosphorylated peptide only and eliminates the FRET signal. Phosphorylation levels of each reaction were calculated using the ratio of coumarin emission (donor) over fluorescein emission (acceptor), for which low ratios indicate high phosphorylation and high ratios indicate low phosphorylation levels.

[3] = biological target: T3, c-Src (Homo sapiens, UniProt P12931); experiment: c-Src enzyme inhibition (Z-LYTE FRET); format: biochemical; settings: Table 2A
T3 construct: purchased Life Technologies
Experimental: as §1, §2, §3

[4] = biological target: T4, GSK 3α enzyme isoform (Homo sapiens, UniProt P49840); experiment: GSK 3α enzyme inhibition (Z-LYTE FRET); format: biochemical; settings: Table 2A; read-out: IC50 Values for Enzyme Inhibition GSK3α
T4 construct: purchased Life Technologies
Experimental: as §1
The GSK3a protein (500 ng/mL, 2.5 μL) was incubated with the test compound (2.5 μL at either 40 μg/mL, 12 μg/mL, 4 μg/mL, 1.2 μg/mL, 0.4 μg/mL, 0.12 μg/mL, 0.04 μg/mL, 0.012 μg/mL, 0.004 μg/mL or 0.0012 μg/mL) for 2 h at RT. The FRET peptide (8 μM, 2.5 μL), which is a phosphorylation target for GSK3α, and ATP (40 μM, 2.5 μL) was then added to the enzyme/compound mixture and the resulting mixture incubated for 1 h at RT. Development reagent (protease, 5 μL) was added for 1 h prior to detection in a fluorescence microplate reader (EnVision, Perkin Elmer).
as §3

[5] = tested on: IL-8 release in d-U937 cells; experiment: LPS-induced IL-8 release in d-U937 cells; format: cell-based; settings: Homo sapiens, dU937, LPS 0.1 μg/mL 4 h
Experimental: U937 cells, a human monocytic cell line, were differentiated into macrophage-type cells by incubation with PMA (100-200 ng/mL) for 48 to 72 h. Cells were pre-incubated with final […] concentrations of test compound for 2 h and were then stimulated with LPS (0.1 μg/mL; from E. coli: O111:B4, Sigma) for 4 h. The supernatant was collected for determination of TNFα and IL-8 concentrations by sandwich ELISA (Duo-set, R&D systems). […] The relative 50% effective concentration (REC50) was determined from the resultant concentration-response curve. The inhibition of IL-8 production was calculated at each concentration of test compound by comparison with vehicle control.

[6] = tested on: ICAM-1 expression in BEAS2B cells; experiment: Poly I:C-induced ICAM-1 expression in BEAS2B cells; format: cell-based; settings: Homo sapiens, BEAS-2B, read-out: PolyIC/ICAM1 IC50 (BEAS2B)
Experimental: Poly I:C was used in these studies as a simple, RNA virus mimic. Poly I:C-Oligofectamine mixture (2% Oligofectamine±1 μg/mL Poly I:C, 25 μL; Life Technologies and Invivogen Ltd., San Diego, Calif., respectively) was transfected into BEAS2B cells (human bronchial epithelial cells, ATCC). Cells were pre-incubated with final concentrations of test compounds for 2 h and the level of ICAM-1 expression on the cell surface was determined by cell-based ELISA. At a time point 18 h after poly I:C transfection, cells were fixed with 4% formaldehyde in PBS (100 μL) and then endogenous peroxidase was quenched by the addition of washing buffer (100 μL, 0.05% Tween in PBS: PBS-Tween) containing 0.1% sodium azide and 1% hydrogen peroxide. Cells were washed with wash-buffer (3×200 μL). After blocking the wells with 5% milk in PBS-Tween (100 μL) for 1 h, the cells were incubated with anti-human ICAM-1 antibody (50 μL; Cell Signaling Technology, Danvers, Mass.) in 1% BSA PBS overnight at 4° C.
The cells were washed with PBS-Tween (3×200 μL) and incubated with the secondary antibody (100 μL; HRP-conjugated anti-rabbit IgG, Dako Ltd., Glostrup, Denmark). The cells were then incubated with of substrate (50 μL) for 2-20 min, followed by the addition of stop solution (50 μL, 1N H2SO4). The ICAM-1 signal was detected by reading the absorbance at 450 nm against a reference wavelength of 655 nm using a spectrophotometer. The cells ware then washed with PBS-Tween (3×200 μL) and total cell numbers in each well were determined by reading absorbance at 595 nm after Crystal Violet staining (50 μL of a 2% solution in PBS) and elution by 1% SDS solution (100 μL) in PBS. The measured OD 450-655 readings were corrected for cell number by dividing with the OD595 reading in each well. The inhibition of ICAM-1 expression was calculated at each concentration of test compound by comparison with vehicle control.

T3 sequence (P12931 whole entry): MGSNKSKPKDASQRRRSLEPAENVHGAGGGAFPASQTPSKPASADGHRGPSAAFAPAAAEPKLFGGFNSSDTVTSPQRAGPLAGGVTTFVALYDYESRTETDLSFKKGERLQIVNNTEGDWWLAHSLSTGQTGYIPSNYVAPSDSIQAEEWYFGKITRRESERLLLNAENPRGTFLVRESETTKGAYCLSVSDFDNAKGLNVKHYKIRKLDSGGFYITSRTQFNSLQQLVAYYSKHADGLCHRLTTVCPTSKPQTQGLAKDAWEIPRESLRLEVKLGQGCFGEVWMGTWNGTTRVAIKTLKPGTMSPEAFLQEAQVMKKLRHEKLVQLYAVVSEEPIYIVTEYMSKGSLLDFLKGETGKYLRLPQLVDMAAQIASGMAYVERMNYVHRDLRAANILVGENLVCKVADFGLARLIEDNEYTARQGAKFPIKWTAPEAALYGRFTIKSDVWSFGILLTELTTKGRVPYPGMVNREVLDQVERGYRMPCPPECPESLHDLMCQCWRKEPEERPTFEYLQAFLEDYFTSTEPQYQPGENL
T4 sequence (P49840 whole entry, canonical isoform): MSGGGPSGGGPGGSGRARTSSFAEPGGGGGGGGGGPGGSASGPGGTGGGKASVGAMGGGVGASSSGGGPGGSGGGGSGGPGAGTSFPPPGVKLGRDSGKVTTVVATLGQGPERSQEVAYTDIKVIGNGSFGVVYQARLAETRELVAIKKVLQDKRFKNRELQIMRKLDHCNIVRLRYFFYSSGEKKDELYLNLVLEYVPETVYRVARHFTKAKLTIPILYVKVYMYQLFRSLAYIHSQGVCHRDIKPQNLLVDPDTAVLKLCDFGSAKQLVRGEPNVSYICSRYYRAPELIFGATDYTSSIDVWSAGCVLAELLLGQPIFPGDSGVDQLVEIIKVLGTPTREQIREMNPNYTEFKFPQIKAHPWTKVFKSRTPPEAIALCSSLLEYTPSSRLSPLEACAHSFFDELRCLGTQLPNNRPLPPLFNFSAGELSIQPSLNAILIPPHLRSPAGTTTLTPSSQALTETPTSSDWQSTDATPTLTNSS
T1 sequence (Q16539 whole entry, canonical isoform): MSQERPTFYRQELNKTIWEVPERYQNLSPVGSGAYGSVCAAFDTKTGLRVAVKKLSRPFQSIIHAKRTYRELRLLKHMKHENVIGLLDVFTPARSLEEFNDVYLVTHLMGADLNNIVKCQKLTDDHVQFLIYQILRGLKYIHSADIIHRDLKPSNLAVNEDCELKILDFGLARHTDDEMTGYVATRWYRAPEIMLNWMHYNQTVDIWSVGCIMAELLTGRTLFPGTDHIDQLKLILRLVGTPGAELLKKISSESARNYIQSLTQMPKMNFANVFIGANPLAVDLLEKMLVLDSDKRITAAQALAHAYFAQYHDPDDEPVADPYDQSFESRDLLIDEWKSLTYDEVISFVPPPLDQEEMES
T2 sequence (P08631 22-526): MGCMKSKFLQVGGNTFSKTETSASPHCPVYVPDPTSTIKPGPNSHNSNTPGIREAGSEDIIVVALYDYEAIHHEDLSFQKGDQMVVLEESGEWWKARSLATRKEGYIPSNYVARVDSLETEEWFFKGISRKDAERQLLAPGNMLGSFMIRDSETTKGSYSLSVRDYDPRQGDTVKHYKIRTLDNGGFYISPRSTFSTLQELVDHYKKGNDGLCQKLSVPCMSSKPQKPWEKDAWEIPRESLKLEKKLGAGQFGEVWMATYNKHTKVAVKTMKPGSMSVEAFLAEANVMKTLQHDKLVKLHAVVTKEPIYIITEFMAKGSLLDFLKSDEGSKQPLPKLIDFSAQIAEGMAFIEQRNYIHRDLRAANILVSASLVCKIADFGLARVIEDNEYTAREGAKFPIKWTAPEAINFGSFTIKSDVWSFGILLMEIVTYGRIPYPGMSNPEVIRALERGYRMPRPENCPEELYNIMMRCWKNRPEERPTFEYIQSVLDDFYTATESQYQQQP

SMILES | IC50 [1] [nM] | IC50 [2] [nM] | IC50 [3] [nM] | IC50 [4] [nM] | IC50 [5] [nM] | IC50 [6] [nM]
Cc1ccc(-n2nc(C(C)(C)C)cc2NC(=O)Nc2ccc(OCc3ccnc(Nc4cnc(CO)cn4)c3)c3ccccc23)cc1 [Example 10, 1-(3-(tert-Butyl)-1-(p-tolyl)-1H-pyrazol-5-yl)-3-(4-((2-((5-(hydroxymethyl)pyrazin-2-yl)amino)pyridin-4-yl)methoxy)naphthalen-1-yl)urea] | 8 | 16 | 47 | > 15900 | 15.3 | 32.5
CNC(=O)Cc1cncc(Nc2cc(COc3ccc(NC(=O)Nc4cc(C(C)(C)C)nn4-c4ccc(C)cc4)c4ccccc34)ccn2)n1 [Example 28] | 5 | 11 | 32 | 5170 | 29.9 | 75.5
Cc1ccc(-n2nc(C(C)(C)C)cc2NC(=O)Nc2ccc(OCc3ccnc(Nc4cnc(CO)cn4)c3)c3ccccc23)s1 [Example 26] | 7 | 20 | 56 | 469 | 14.6 | 973
Cc1ccc(-n2nc(C(C)(C)C)cc2NC(=O)Nc2ccc(OCc3ccnc(Nc4cnccn4)c3)c3ccccc23)s1 [Example 13] | 9 | 49 | 129 | > 14700 | 7.8 | 556
Cc1ccc(-n2nc(C(C)(C)C)cc2NC(=O)Nc2ccc(OCc3ccnc(Nc4cncc(C5CC5)n4)c3)c3ccccc23)s1 [Example 24] | 38 | 18 | 42 | 1130 | 4.5 | 55.1
COc1ccc(-n2nc(C(C)(C)C)cc2NC(=O)Nc2ccc(OCc3ccnc(Nc4cnccn4)c3)c3ccccc23)cn1 [Example 12] | 14 | 39 | 105 | > 16200 | 9.3 | 242
CC(C)c1ccc(-n2nc(C(C)(C)C)cc2NC(=O)Nc2ccc(OCc3ccnc(Nc4cnccn4)c3)c3ccccc23)cc1 [Example 41] | 189 | 1430 | 11000 | 3570 | 43.8 | > 1600
Cc1ccc(-n2nc(C(C)(C)C)cc2NC(=O)Nc2ccc(OCc3ccnc(Nc4cnccn4)c3)c3ccccc23)cc1C(F)(F)F [Example 52] | 116 | 316 | > 15000 | > 15000 | > 1500 | > 1500
COc1ccc(-n2nc(C(C)(C)C)cc2NC(=O)Nc2ccc(OCc3ccnc(Nc4cnc(CO)cn4)c3)c3ccccc23)cc1 [Example 23] | 4 | 13 | 33 | 626 | 6.2 | 33.5
CC(C)(C)c1cc(NC(=O)Nc2ccc(OCc3ccnc(Nc4cnccn4)c3)c3ccccc23)n(-c2cccc(Cl)c2)n1 [Example 50] | 22 | 113 | 966 | 7080 | 30.3 | > 1620
Cc1cc(-n2nc(C(C)(C)C)cc2NC(=O)Nc2ccc(OCc3ccnc(Nc4cncc(C5CC5)n4)c3)c3ccccc23)cs1 [Example 27] | 17 | 13 | 42 | 1030 | 4 | 71.2
Cc1ccc(-n2nc(C(C)(C)C)cc2NC(=O)Nc2ccc(OCc3ccnc(Nc4cnc(C(=O)NCCN5CCOCC5)cn4)c3)c3ccccc23)cc1 [Example 17] | 8 | 17 | 34 | 2820 | 16.5 | 433
Cc1ccc(-n2nc(C(C)(C)C)cc2NC(=O)Nc2ccc(OCc3ccnc(Nc4cnccn4)c3)c3ccccc23)cc1C [Example 51] | 14 | 36 | 160 | > 16300 | 25.7 | 281
CC(C)(C)c1cc(NC(=O)Nc2ccc(OCc3ccnc(Nc4cncc(C5CC5)n4)c3)c3ccccc23)n(-c2ccc(O)cc2)n1 [Example 34] | 13 | 7 | 18 | 1200 | 8.3 | 41.1
Cc1ccc(-n2nc(C(C)(C)C)cc2NC(=O)Nc2ccc(OCc3ccnc(Nc4cncc(C5CC5)n4)c3)c3ccccc23)cc1 [Example 15] | 96 | 15 | 34 | 3650 | 1.9 | 15.7
COc1ccc(-n2nc(C(C)(C)C)cc2NC(=O)Nc2ccc(OCc3ccnc(Nc4cnccn4)c3)c3ccccc23)cc1C [Example 39] | 18 | 31 | 82 | > 15900 | 12.8 | 46.6
Cc1ccc(-n2nc(C(C)(C)C)cc2NC(=O)Nc2ccc(OCc3ccnc(Nc4cnc(C(=O)N5CCOCC5)cn4)c3)c3ccccc23)cc1 [Example 35] | 9 | 42 | 51 | 3430 | 102 | 113
Cc1ccc(-n2nc(C(C)(C)C)cc2NC(=O)Nc2ccc(OCc3ccnc(Nc4cnc(C)c(C)n4)c3)c3ccccc23)cc1 [Example 4, 1-(3-(tert-Butyl)-1-(p-tolyl)-1H-pyrazol-5-yl)-3-(4-((2-((5,6-dimethylpyrazin-2-yl)amino)pyridin-4-yl)methoxy)naphthalen-1-yl)urea] | 22 | 111 | 447 | > 4960 | 25.4 | > 1600
COc1cncc(Nc2cc(COc3ccc(NC(=O)Nc4cc(C(C)(C)C)nn4-c4ccc(C)cc4)c4ccccc34)ccn2)n1 [Example 18] | 13 | 41 | 196 | 9170 | 2.1 | 97.8
COc1ccc(-n2nc(C(C)(C)C)cc2NC(=O)Nc2ccc(OCc3ccnc(Nc4cnccn4)c3)c3ccccc23)cc1Cl [Example 46] | 85 | 68 | 385 | 7050 | 268 | 212
